Measured values from patent US9695154B2, “Heteroaryl inhibitors of sumo activating enzyme” (MILLENNIUM PHARMACEUTICALS, INC., priority 2013, dated 2017).

Molecular target: T1, recombinant human SAE enzyme (Homo sapiens, UniProt Q9UBT2)
T1 sequence (Q9UBT2 1-640): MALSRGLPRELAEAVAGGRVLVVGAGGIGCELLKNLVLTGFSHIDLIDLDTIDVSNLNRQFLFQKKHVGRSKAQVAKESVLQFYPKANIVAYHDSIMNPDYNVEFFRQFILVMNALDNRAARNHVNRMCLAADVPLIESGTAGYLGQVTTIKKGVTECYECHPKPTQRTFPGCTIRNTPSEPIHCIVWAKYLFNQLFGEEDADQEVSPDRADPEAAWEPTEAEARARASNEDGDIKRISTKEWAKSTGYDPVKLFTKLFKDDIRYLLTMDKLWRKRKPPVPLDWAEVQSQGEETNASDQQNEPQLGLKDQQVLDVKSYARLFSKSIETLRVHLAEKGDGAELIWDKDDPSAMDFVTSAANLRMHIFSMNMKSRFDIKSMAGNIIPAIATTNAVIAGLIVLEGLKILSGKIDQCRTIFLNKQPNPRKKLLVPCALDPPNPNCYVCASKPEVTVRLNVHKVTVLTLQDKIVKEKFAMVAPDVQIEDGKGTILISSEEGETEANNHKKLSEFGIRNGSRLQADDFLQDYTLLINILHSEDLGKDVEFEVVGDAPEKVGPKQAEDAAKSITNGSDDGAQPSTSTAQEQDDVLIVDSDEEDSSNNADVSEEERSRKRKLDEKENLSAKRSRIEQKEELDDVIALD
T1 sequence (Q9UBE0 1-346 partner): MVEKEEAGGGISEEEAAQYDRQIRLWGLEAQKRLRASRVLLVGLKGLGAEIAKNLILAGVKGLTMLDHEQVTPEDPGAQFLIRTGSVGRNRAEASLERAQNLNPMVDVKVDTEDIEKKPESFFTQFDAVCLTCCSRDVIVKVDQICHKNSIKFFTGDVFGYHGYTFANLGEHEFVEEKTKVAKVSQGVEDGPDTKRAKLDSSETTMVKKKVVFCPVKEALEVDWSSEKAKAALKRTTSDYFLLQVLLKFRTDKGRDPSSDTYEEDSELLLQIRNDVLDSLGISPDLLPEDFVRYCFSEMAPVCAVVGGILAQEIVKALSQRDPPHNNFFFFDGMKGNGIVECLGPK
Experiment: SAE HTRF Enzyme Assay
Type: biochemical
Details: for IC50: class symbols A-C; for inhibition at 0.111 µM: compound concentration 0.111 μM, read-out: Percent Inhibition
Outline: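 Sumoylation of Ubc9-GST by recombinant human SAE was followed by time-resolved FRET between Eu-cryptate anti-Flag and allophycocyanin anti-GST antibodies. The enzyme step used low ATP (0.5 μM) at pH 7.5 and ran 105 min at 24° C.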

| SMILES | IC50 [µM] | inhibition at 0.111 µM [%] |
| --- | --- | --- |
| NS(=O)(=O)OC[C@H]1C[C@@H](Nc2ccncc2C(=O)c2ccn(Cc3cccc(C(F)(F)F)c3)n2)C[C@@H]1O [Compound I-262, [(1R,2S,4R)-2-hydroxy-4-{[3-({1-[3-(trifluoromethyl)benzyl]-1H-pyrazol-3-yl}carbonyl)pyridin-4-yl]amino}cyclopentyl]methyl sulfamate] | < 0.01 | 96 |
| NS(=O)(=O)OC[C@H]1C[C@@H](Nc2ccncc2C(=O)c2ccn(Cc3ccc(F)c(C(F)(F)F)c3)n2)C[C@@H]1O [Compound I-263, [(1R,2S,4R)-4-{[3-({1-[4-fluoro-3-(trifluoromethyl)benzyl]-1H-pyrazol-3-yl}carbonyl)pyridin-4-yl]amino}-2-hydroxycyclopentyl]methyl sulfamate] | < 0.01 | 91 |
| NS(=O)(=O)OC[C@H]1C[C@@H](Nc2ncncc2C(=O)c2ccn(C3(c4cccc(Cl)c4)CC3)c2)C[C@@H]1O [Compound I-264, [(1R,2S,4R)-4-{[5-({1-[1-(3-Chlorophenyl)cyclopropyl]-1H-pyrrol-3-yl}carbonyl)pyrimidin-4-yl]amino}-2-hydroxycyclopentyl]methyl sulfamate] | 0.01 to 0.1 | 90 |
| NS(=O)(=O)OC[C@H]1C[C@@H](Nc2ncncc2C(=O)c2ccn(Cc3ccc(OC(F)(F)F)cc3)n2)[C@H](O)[C@@H]1O [Compound I-265, [(1R,2R,3S,4R)-2,3-dihydroxy-4-{[5-({1-[4-(trifluoromethoxy)benzyl]-1H-pyrazol-3-yl}carbonyl)pyrimidin-4-yl]amino}cyclopentyl]methyl sulfamate] | < 0.01 | 95 |
| NS(=O)(=O)OC[C@H]1C[C@@H](Nc2ncncc2C(=O)c2ccn(Cc3ccc(C(F)(F)F)cc3C(F)(F)F)n2)[C@H](O)[C@@H]1O [Compound I-266, [(1R,2R,3S,4R)-4-{[5-({1-[2,4-bis(trifluoromethyl)benzyl]-1H-pyrazol-3-yl}carbonyl)pyrimidin-4-yl]amino}-2,3-dihydroxycyclopentyl]methyl sulfamate] | 0.01 to 0.1 | 87 |
| NS(=O)(=O)OC[C@H]1C[C@@H](Nc2ncncc2C(=O)c2ccn(Cc3cc(C(F)(F)F)ccc3C(F)(F)F)n2)[C@H](O)[C@@H]1O [Compound I-267, [(1R,2R,3S,4R)-4-{[5-({1-[2,5-bis(trifluoromethyl)benzyl]-1H-pyrazol-3-yl}carbonyl)pyrimidin-4-yl]amino}-2,3-dihydroxycyclopentyl]methyl sulfamate] | < 0.01 | 97 |
| NS(=O)(=O)OC[C@H]1C[C@@H](Nc2ncncc2C(=O)c2ccn(Cc3cc(C(F)(F)F)ccc3Cl)n2)[C@H](O)[C@@H]1O [Compound I-268, [(1R,2R,3S,4R)-4-{[5-({1-[2-chloro-5-(trifluoromethyl)benzyl]-1H-pyrazol-3-yl}carbonyl)pyrimidin-4-yl]amino}-2,3-dihydroxycyclopentyl]methyl sulfamate] | < 0.01 | 99 |
| NS(=O)(=O)OC[C@H]1C[C@@H](Nc2ncncc2C(=O)c2ccn(Cc3cc(F)cc(F)c3)n2)[C@H](O)[C@@H]1O [Compound I-269, {(1R,2R,3S,4R)-4-[(5-{[1-(3,5-difluorobenzyl)-1H-pyrazol-3-yl]carbonyl}pyrimidin-4-yl)amino]-2,3-dihydroxycyclopentyl}methyl sulfamate] | < 0.01 | 96 |
| NS(=O)(=O)OC[C@H]1C[C@@H](Nc2ncncc2C(=O)c2ccn(Cc3cccc(C4(O)COC4)c3)n2)C[C@@H]1O [Compound I-270, [(1R,2S,4R)-2-hydroxy-4-{[5-{{1-[3-(3-hydroxyoxetan-3-yl)benzyl]-1H-pyrazol-3-yl}carbonyl)pyrimidin-4-yl]amino}cyclopentyl]methyl sulfamate] | 0.01 to 0.1 | 87 |
| NS(=O)(=O)OC[C@H]1C[C@@H](Nc2ncncc2C(=O)c2ccn(Cc3cccc(OC(F)(F)F)c3)c2)C[C@@H]1O [Compound I-271, [(1R,2S,4R)-2-hydroxy-4-{[5-({1-[3-(trifluoromethoxy)benzyl]-1H-pyrrol-3-yl}carbonyl)pyrimidin-4-yl]amino}cyclopentyl]methyl sulfamate] | < 0.01 | 97 |
| NS(=O)(=O)OC[C@H]1C[C@@H](Nc2ncncc2C(=O)c2cc(Br)n(Cc3cccc(Br)c3)c2)[C@@H](F)[C@@H]1O [Compound I-272, {(1R,2R,3R,4R)-4-[(5-{[5-bromo-1-(3-bromobenzyl)-1H-pyrrol-3-yl]carbonyl}pyrimidin-4-yl)amino]-3-fluoro-2-hydroxycyclopentyl}methyl sulfamate] | < 0.01 | 99 |
| NS(=O)(=O)OC[C@H]1C[C@@H](Nc2ncncc2C(=O)c2ccn(Cc3ccc(F)c4ccccc34)n2)[C@H](O)[C@@H]1O [Compound I-273, [(1R,2R,3S,4R)-4-{[5-({1-[(4-fluoro-1-naphthyl)methyl]-1H-pyrazol-3-yl}carbonyl)pyrimidin-4-yl]amino}-2,3-dihydroxycyclopentyl]methyl sulfamate] | < 0.01 | 98 |
| NS(=O)(=O)OC[C@H]1C[C@@H](Nc2ncncc2C(=O)c2ccn(Cc3ccc(C(F)(F)F)o3)c2)C[C@@H]1O [Compound I-274, [(1R,2S,4R)-2-hydroxy-4-({5-[(1-{[5-(trifluoromethyl)-2-furyl]methyl}-1H-pyrrol-3-yl)carbonyl]pyrimidin-4-yl}amino)cyclopentyl]methyl sulfamate] | < 0.01 | 97 |
| NS(=O)(=O)OC[C@H]1C[C@@H](Nc2ncncc2C(=O)c2ccn(CC#CC3(O)COC3)n2)C[C@@H]1O [Compound I-275, [(1R,2S,4R)-2-hydroxy-4-{[5-({1-[3-(3-hydroxyoxetan-3-yl)prop-2-yn-1-yl]-1H-pyrazol-3-yl}carbonyl)pyrimidin-4-yl]amino}cyclopentyl]methyl sulfamate] | 0.1 to 1 | 18 |
| NS(=O)(=O)OC[C@H]1C[C@@H](Nc2ncncc2C(=O)c2ccn(Cc3ccc(OC(F)(F)F)cc3)n2)C[C@@H]1O [Compound I-276, [(1R,2S,4R)-2-hydroxy-4-{[5-({1-[4-(trifluoromethoxy)benzyl]-1H-pyrazol-3-yl}carbonyl)pyrimidin-4-yl]amino}cyclopentyl]methyl sulfamate] | 0.01 to 0.1 | 82 |
| Cc1ccc(Cn2ccc(C(=O)c3cncnc3N[C@@H]3C[C@H](COS(N)(=O)=O)[C@@H](O)[C@@H]3F)c2)o1 [Compound I-277, [(1R,2R,3R,4R)-3-fluoro-2-hydroxy-4-{[5-({1-[(5-methyl-2-furyl)methyl]-1H-pyrrol-3-yl}carbonyl)pyrimidin-4-yl]amino}cyclopentyl]methyl sulfamate] | < 0.01 | 99 |
| NS(=O)(=O)OC[C@H]1C[C@@H](Nc2ncncc2C(=O)c2ccn(Cc3cccc(-c4ccccc4)c3)n2)[C@H](O)[C@@H]1O [Compound I-278, {(1R,2R,3S,4R)-4-[(5-{[1-(biphenyl-3-ylmethyl)-1H-pyrazol-3-yl]carbonyl}pyrimidin-4-yl)amino]-2,3-dihydroxycyclopentyl}methyl sulfamate] | < 0.01 | 97 |
| NS(=O)(=O)OC[C@H]1C[C@@H](Nc2ncncc2C(=O)c2ccn(Cc3ccc(F)c(Br)c3)c2)C[C@@H]1O [Compound I-279, {(1R,2S,4R)-4-[(5-{[1-(3-bromo-4-fluorobenzyl)-1H-pyrrol-3-yl]carbonyl}pyrimidin-4-yl)amino]-2-hydroxycyclopentyl}methyl sulfamate] | < 0.01 | 98 |
| NS(=O)(=O)OC[C@H]1C[C@@H](Nc2ncncc2C(=O)c2ccn(Cc3ccc(Cl)s3)n2)C[C@@H]1O [Compound I-280, [(1R,2S,4R)-4-{[5-({1-[(5-chloro-2-thienyl)methyl]-1H-pyrazol-3-yl}carbonyl)pyrimidin-4-yl]amino}-2-hydroxycyclopentyl]methyl sulfamate] | < 0.01 | 99 |
| CSCn1ccc(C(=O)c2cncnc2N[C@@H]2C[C@H](COS(N)(=O)=O)[C@@H](O)C2)n1 [Compound I-281, [(1R,2S,4R)-2-hydroxy-4-{[5-({1-[(methylsulfanyl)methyl]-1H-pyrazol-3-yl}carbonyl)pyrimidin-4-yl]amino}cyclopentyl]methyl sulfamate] | 0.1 to 1 | 25 |
